# Biological target: Cytochrome P450 3A4 (Homo sapiens, UniProt P08684)
# Assay: Inhibition of human CYP3A4
# Format: ADME
# Chain of Cytochrome P450 3A4 (P08684 whole entry): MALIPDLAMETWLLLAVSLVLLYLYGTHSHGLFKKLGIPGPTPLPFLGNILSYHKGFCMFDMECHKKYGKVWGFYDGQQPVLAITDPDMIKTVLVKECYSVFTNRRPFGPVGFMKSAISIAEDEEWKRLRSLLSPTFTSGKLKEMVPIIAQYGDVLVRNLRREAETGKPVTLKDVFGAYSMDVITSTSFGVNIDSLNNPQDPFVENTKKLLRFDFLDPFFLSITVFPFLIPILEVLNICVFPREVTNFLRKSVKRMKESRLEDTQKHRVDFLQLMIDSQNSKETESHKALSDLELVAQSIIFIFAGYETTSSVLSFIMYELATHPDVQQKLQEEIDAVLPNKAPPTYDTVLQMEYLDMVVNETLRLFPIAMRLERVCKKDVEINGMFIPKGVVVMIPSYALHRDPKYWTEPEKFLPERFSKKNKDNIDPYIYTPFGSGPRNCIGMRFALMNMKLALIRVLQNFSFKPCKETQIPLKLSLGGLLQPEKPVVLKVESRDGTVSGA
row,Structure (SMILES),Activity [µM]
1,Cc1cccc(CNc2ncncc2-c2ccccc2Cl)c1,199
2,COc1ccc(CNc2ncncc2-c2ccc(C(=O)N(C)C)cc2)c(OC)c1,501
3,Cc1cccc(CNc2ncncc2-c2ccc(C(=O)N(C)C)cc2)c1,631
4,COc1ccc(CNc2ncnc3ccc(-c4ccccc4CN(C)C)cc23)c(OC)c1,8
5,COc1ccccc1-c1cncnc1NCc1ccccc1,251
6,Cc1ccccc1-c1cncnc1NCc1ccccc1,316
7,COc1ccccc1CNc1ncnc2ccc(-c3cccc(NS(C)(=O)=O)c3)cc12,3.2
8,COc1ccc(CNc2ncncc2-c2ccccc2C)c(OC)c1,398
9,COc1cccc(-c2ccc3ncnc(NCc4ccc(OC)cc4OC)c3c2)c1,2.5
10,COc1ccccc1CNc1ncnc2ccc(-c3ccccc3CN(C)C)cc12,12.6
11,COc1ccc(CNc2ncncc2-c2cccc(C#N)c2)c(OC)c1,316
12,COc1ccc(CNc2ncncc2-c2cccc(NS(C)(=O)=O)c2)c(OC)c1,251
13,COc1ccccc1CNc1ncncc1-c1ccccc1Cl,199
14,COc1ccccc1-c1ccc2ncnc(NCc3ccccc3)c2c1,12.6
15,COc1cccc(-c2cncnc2NCc2ccccc2)c1,316
16,COc1ccccc1CNc1ncncc1-c1ccccc1C(F)(F)F,79
17,N#Cc1cccc(-c2cncnc2NCc2ccccc2)c1,1259
18,CN(C)Cc1ccccc1-c1ccc2ncnc(NCc3ccccc3)c2c1,15.8
19,COc1ccc(CNc2ncnc3ccc(-c4ccccc4C#N)cc23)c(OC)c1,1
20,CN(C)C(=O)c1ccc(-c2cncnc2NCc2ccccc2)cc1,2512
21,COc1ccc(CNc2ncncc2-c2ccccc2OC)c(OC)c1,316
22,Cc1cccc(CNc2ncncc2-c2ccccc2C(F)(F)F)c1,79
23,Cc1cccc(CNc2ncnc3ccc(-c4ccccc4C#N)cc23)c1,1.2
24,COc1ccccc1CNc1ncncc1-c1cccc(NS(C)(=O)=O)c1,251
25,CN(C)C(=O)c1ccc(-c2ccc3ncnc(NCc4ccccc4)c3c2)cc1,15.8

row,Structure (SMILES),Activity [µM]
1,COc1cccc(-c2cncnc2NCc2ccccc2OC)c1,501
2,COc1ccc(CNc2ncnc3ccc(-c4cccc(NS(C)(=O)=O)c4)cc23)c(OC)c1,2
3,Cc1cccc(CNc2ncncc2-c2cccc(NS(C)(=O)=O)c2)c1,158
4,COc1ccccc1CNc1ncnc2ccc(-c3ccc(C(=O)N(C)C)cc3)cc12,10
5,COc1ccccc1CNc1ncncc1-c1ccc(C(=O)N(C)C)cc1,2512
6,CN(C)c1ccc(-c2ccc3ncnc(NCc4ccccc4)c3c2)cc1,2.5
7,COc1ccc(CNc2ncnc3ccc(-c4ccc(C(=O)N(C)C)cc4)cc23)c(OC)c1,2.5
8,COc1ccc(CNc2ncnc3ccc(-c4ccc(N(C)C)cc4)cc23)c(OC)c1,4
9,COc1ccccc1CNc1ncnc2ccc(-c3ccc(N(C)C)cc3)cc12,2
10,COc1cccc(-c2cncnc2NCc2ccc(OC)cc2OC)c1,501
11,COc1ccc(CNc2ncncc2-c2ccccc2C(F)(F)F)c(OC)c1,316
12,COc1ccccc1CNc1ncnc2ccc(-c3cccc(C#N)c3)cc12,8
13,COc1ccccc1CNc1ncnc2ccc(-c3ccccc3C#N)cc12,4
14,COc1ccc(CNc2ncnc3ccc(-c4cccc(C#N)c4)cc23)c(OC)c1,1.6
15,CS(=O)(=O)Nc1cccc(-c2cncnc2NCc2ccccc2)c1,631
16,Cc1cccc(CNc2ncncc2-c2ccccc2C)c1,398
17,Cc1cccc(CNc2ncnc3ccc(-c4ccc(C(=O)N(C)C)cc4)cc23)c1,2
18,COc1ccccc1CNc1ncnc2ccc(-c3ccccc3OC)cc12,6.3
19,COc1cccc(-c2cncnc2NCc2cccc(C)c2)c1,398
20,COc1ccc(CNc2ncncc2-c2ccccc2OC)cc1,199
21,Cc1cccc(CNc2ncncc2-c2cccc(C#N)c2)c1,199
22,COc1ccc(CNc2ncnc3ccc(-c4ccccc4OC)cc23)c(OC)c1,2
23,COc1ccccc1-c1cncnc1NCc1cccc(C)c1,100
24,COc1ccc(CNc2ncncc2-c2ccc(N(C)C)cc2)c(OC)c1,199
25,COc1ccc(CNc2ncncc2-c2ccccc2CN(C)C)c(OC)c1,398

# Biological target: T1, Peroxisomal multifunctional enzyme type 2 (Homo sapiens) (UniProt P51659)
# T1 sequence (whole entry): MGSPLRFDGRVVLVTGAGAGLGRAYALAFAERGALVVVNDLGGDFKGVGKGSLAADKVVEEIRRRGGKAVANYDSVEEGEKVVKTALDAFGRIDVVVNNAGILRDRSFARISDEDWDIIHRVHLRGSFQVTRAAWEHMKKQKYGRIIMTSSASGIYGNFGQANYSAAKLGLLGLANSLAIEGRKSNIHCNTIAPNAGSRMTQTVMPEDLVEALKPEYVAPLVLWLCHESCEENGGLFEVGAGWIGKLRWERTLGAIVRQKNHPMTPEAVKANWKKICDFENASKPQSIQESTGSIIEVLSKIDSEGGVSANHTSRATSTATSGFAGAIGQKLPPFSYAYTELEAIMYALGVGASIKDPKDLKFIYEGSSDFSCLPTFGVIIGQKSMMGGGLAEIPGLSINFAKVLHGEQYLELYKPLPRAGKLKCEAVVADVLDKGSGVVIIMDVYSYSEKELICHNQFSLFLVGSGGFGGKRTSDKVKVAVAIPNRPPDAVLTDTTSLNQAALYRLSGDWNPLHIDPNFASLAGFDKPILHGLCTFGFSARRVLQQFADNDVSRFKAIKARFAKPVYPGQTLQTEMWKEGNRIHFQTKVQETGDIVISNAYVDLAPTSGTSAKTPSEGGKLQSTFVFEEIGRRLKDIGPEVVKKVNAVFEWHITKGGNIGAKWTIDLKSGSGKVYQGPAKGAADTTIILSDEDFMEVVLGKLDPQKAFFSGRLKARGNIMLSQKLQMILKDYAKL
# Assay: Inhibition of hydroxysteroid-17-beta dehydrogenase 4
row,Structure (SMILES),Activity [µM]
1,COC(=O)C(C)Oc1ccc2c3c(c(=O)oc2c1)CCCCC3 (stereo not given),32
2,CC(=O)C(C)Oc1ccc2c3c(c(=O)oc2c1)CCCCC3 (stereo not given),25
3,CC(=O)COc1ccc2c3c(c(=O)oc2c1C)CCCCC3,13
4,NC(=O)COc1ccc2c3c(c(=O)oc2c1)CCCCC3,25

# Biological target: Prothrombin (Homo sapiens) (UniProt P00734)
# Assay: Inhibition of human thrombin
row,Structure (SMILES),Activity [nM]
1,Nc1nc(-c2ccco2)nn1C(=O)c1ccc(Cl)cc1,1460
2,COc1ccc(C(=O)n2nc(-c3ccco3)nc2N)cc1,828
3,COc1ccccc1C(=O)n1nc(-c2ccco2)nc1SC,1
4,Nc1nc(-c2ccco2)nn1C(=O)c1ccccc1,926
5,COc1ccc(C(=O)n2nc(-c3ccco3)nc2SC)cc1OC,204
6,Nc1nc(-c2ccco2)nn1C(=O)c1ccccc1Cl,14000
7,Cc1ccc(C(=O)n2nc(-c3ccco3)nc2N)cc1,741
8,CSc1nc(-c2ccco2)nn1C(=O)c1ccc(C)cc1,159
9,COc1ccc(C(=O)n2nc(-c3ccco3)nc2N)cc1OC,2230
10,CSc1nc(-c2ccco2)nn1C(=O)c1ccccc1,82
11,COc1ccccc1C(=O)n1nc(-c2ccco2)nc1N,6930

# From ChEMBL document CHEMBL1138506, “Exploration of structure-activity relationship determinants in analogue series” (J Med Chem, 2009)
